*1 amine or outer side, *2 acyl side, *3 side chain or, on linkers, in order; H or OH if unused. Where a SMILES comes first, the peptide text is derived from it. [ ]: non-standard residue; d: D form. Phe(4-(cis-4-COOH-cHex)) = N[C@@H](Cc1ccc([C@H]2CC[C@@H](C(=O)O)CC2)cc1)C(=O)O; Phe(4-(4-Ac-piperazinyl)) = CC(=O)N1CCN(c2ccc(C[C@H](N)C(=O)O)cc2)CC1; Trp(4-Cl)(βS-Me) = C[C@@H](c1c[nH]c2cccc(Cl)c12)[C@H](N)C(=O)O; Bip(4'-COOH) = N[C@@H](Cc1ccc(-c2ccc(C(=O)O)cc2)cc1)C(=O)O; X1 = CC(=O)N1CCN(c2ccc(C[C@H](N[*:1])C(=O)[*:2])cn2)CC1; 1Nal(3S-Me) = C[C@@H](c1cccc2ccccc12)[C@H](N)C(=O)O; X5 = O=C([C@@H]1C[C@@H](NCCc2ccccc2)CN1[*:1])[*:2]; X13 = O=C([C@H](CCc1ccccc1C(F)(F)F)N[*:1])[*:2]; Phe(4-COOH) = N[C@@H](Cc1ccc(C(=O)O)cc1)C(=O)O; X10 = O=C([C@H](CC1CCC(F)(F)CC1)N[*:1])[*:2]; h3Pal(5-CN) = N#Cc1cncc(CC[C@H](N)C(=O)O)c1; Pro(4R-NH2) = N[C@H]1CN[C@H](C(=O)O)C1; 1Nal = N[C@@H](Cc1cccc2ccccc12)C(=O)O; AEF = NCCOc1ccc(C[C@H](N)C(=O)O)cc1; hTyr = N[C@@H](CCc1ccc(O)cc1)C(=O)O; hCha = N[C@@H](CCC1CCCCC1)C(=O)O; 4Pal = N[C@@H](Cc1ccncc1)C(=O)O; dDab = NCC[C@@H](N)C(=O)O; dDap = NC[C@@H](N)C(=O)O; dNMeA = CN[C@H](C)C(=O)O; Dab = NCC[C@H](N)C(=O)O; Nva = CCC[C@H](N)C(=O)O; Dap = NC[C@H](N)C(=O)O; Aib = CC(C)(N)C(=O)O
Target: T1, Recombinant human IL-1β (Homo sapiens, UniProt P01584)
T1 construct: purchased BioLegend 579404
Assay: IL-6 assay in MRC5 cells: inhibition of IL-1β induced IL-6 secretion (AlphaLISA)
Assay type: cell-based
Details: inhibition of IL-1β induced IL-6 secretion in MRC5 cells; IL-1β pre-incubated 1 hour with compound; read-out: MRC5 IC50
Procedure, shortened: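 IL-1β at 2×EC80 in seeding medium (EMEM, 0.025% BSA) preincubated 1 h at ambient temperature with compound, then 3000 MRC5 cells/well added and incubated overnight at 37 °C, 5% CO2. IL-6 in conditioned medium quantified by AlphaLISA; IC50 from 4-parameter logistic fit.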

T1 sequence (P01584 117-269): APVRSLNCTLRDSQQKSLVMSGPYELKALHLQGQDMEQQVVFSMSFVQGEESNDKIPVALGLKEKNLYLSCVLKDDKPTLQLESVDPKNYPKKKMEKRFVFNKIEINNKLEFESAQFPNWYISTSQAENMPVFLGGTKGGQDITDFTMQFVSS

SMILES | IC50 [nM]
CC(=O)NCCOc1ccc(C[C@@H]2NC(=O)[C@H](CCc3cncc(C#N)c3)NC(=O)[C@@H](CCN)NC(=O)CNC(=O)[C@H](Cc3ccncc3)NC(=O)[C@H](Cc3ccc(-c4ccc(C(=O)O)cc4)cc3)NC(=O)CNC(=O)[C@@H](C)N(C)C(=O)[C@H](CC(=O)O)NC(=O)[C@H]([C@@H](C)c3cccc4ccccc34)NC(=O)[C@@H]3C[C@@H](N)CN3C(=O)CNC(=O)[C@H](Cc3ccc(C(=O)O)cc3)NC(=O)[C@H](Cc3c[nH]c4ccccc34)NC2=O)cc1 [Example 102] (cyclo([AEF](Ac)W[Phe(4-COOH)]G[Pro(4R-NH2)][1Nal(3S-Me)]D[dNMeA]G[Bip(4'-COOH)][4Pal]G[dDab][h3Pal(5-CN)])) | 0.0421
CC(=O)NCCOc1ccc(C[C@@H]2NC(=O)CNC(=O)C(C)(C)NC(=O)[C@H](CC(C)C)NC(=O)[C@H](Cc3cccc4ccccc34)NC(=O)[C@H](Cc3ccc(-c4ccc(C(=O)O)cc4)cc3)NC(=O)CNC(=O)[C@@H](C)N(C)C(=O)[C@H](CC(=O)O)NC(=O)[C@H]([C@@H](C)c3cccc4ccccc34)NC(=O)[C@@H]3C[C@@H](N)CN3C(=O)CNC(=O)[C@H](Cc3ccc(C(=O)O)cc3)NC(=O)[C@H](Cc3c[nH]c4ccccc34)NC2=O)cc1 [Example 95] (cyclo([AEF](Ac)W[Phe(4-COOH)]G[Pro(4R-NH2)][1Nal(3S-Me)]D[dNMeA]G[Bip(4'-COOH)][1Nal]L[Aib]G)) | 0.422
CC(=O)N1CCN(c2ccc(C[C@@H]3NC(=O)[C@H](CCc4ccc(O)cc4)NC(=O)[C@@H](C)NC(=O)[C@H](CN)NC(=O)[C@H](Cc4c[nH]c5ccccc45)NC(=O)[C@H](Cc4ccc(-c5ccc(C(=O)O)cc5)cc4)NC(=O)CNC(=O)[C@@H](C)N(C)C(=O)[C@H](CC(=O)O)NC(=O)[C@H]([C@@H](C)c4cccc5ccccc45)NC(=O)[C@@H]4C[C@@H](N)CN4C(=O)CNC(=O)[C@H](Cc4ccc(C(=O)O)cc4)NC(=O)[C@H](Cc4c[nH]c5ccccc45)NC3=O)cn2)CC1 [Example 5] (cyclo([X1]W[Phe(4-COOH)]G[Pro(4R-NH2)][1Nal(3S-Me)]D[dNMeA]G[Bip(4'-COOH)]W[Dap][dA][hTyr])) | 0.674
CC(=O)N1CCN(c2ccc(C[C@@H]3NC(=O)[C@H](CCc4ccc(O)cc4)NC(=O)[C@@H](CCN)NC(=O)CNC(=O)[C@H](Cc4c[nH]c5ccccc45)NC(=O)[C@H](Cc4ccc(-c5ccc(C(=O)O)cc5)cc4)NC(=O)CNC(=O)[C@@H](C)N(C)C(=O)[C@H](CC(=O)O)NC(=O)[C@H]([C@@H](C)c4c[nH]c5cccc(Cl)c45)NC(=O)[C@@H]4C[C@@H](N)CN4C(=O)CNC(=O)[C@H](Cc4ccc(C(=O)O)cc4)NC(=O)[C@H](Cc4c[nH]c5ccccc45)NC3=O)cc2)CC1 [Example 85] (cyclo([Phe(4-(4-Ac-piperazinyl))]W[Phe(4-COOH)]G[Pro(4R-NH2)][Trp(4-Cl)(βS-Me)]D[dNMeA]G[Bip(4'-COOH)]WG[dDab][hTyr])) | 0.0543
C[C@@H]1C(=O)NCC(=O)N[C@@H](Cc2ccc(-c3ccc(C(=O)O)cc3)cc2)C(=O)N[C@@H](Cc2c[nH]c3ccccc23)C(=O)N[C@@H](CN)C(=O)N[C@H](C)C(=O)N[C@@H](CCc2ccc(O)cc2)C(=O)N[C@@H](Cc2ccc(-c3ccc(C(=O)O)cc3)cc2)C(=O)N[C@@H](Cc2c[nH]c3ccccc23)C(=O)N[C@@H](Cc2ccc(C(=O)O)cc2)C(=O)NCC(=O)N2C[C@H](NCCc3ccccc3)C[C@H]2C(=O)N[C@@H]([C@@H](C)c2cccc3ccccc23)C(=O)N[C@@H](CC(=O)O)C(=O)N1C [Example 83] (cyclo([Bip(4'-COOH)]W[Phe(4-COOH)]G[X5][1Nal(3S-Me)]D[dNMeA]G[Bip(4'-COOH)]W[Dap][dA][hTyr])) | 0.0329
CC(=O)NCCOc1ccc(C[C@@H]2NC(=O)[C@H](CCc3ccccc3C(F)(F)F)NC(=O)[C@@H](C)NC(=O)[C@H](CO)NC(=O)[C@H](Cc3ccncc3)NC(=O)[C@H](Cc3ccc(-c4ccc(C(=O)O)cc4)cc3)NC(=O)CNC(=O)[C@@H](C)N(C)C(=O)[C@H](CC(=O)O)NC(=O)[C@H]([C@@H](C)c3cccc4ccccc34)NC(=O)[C@@H]3C[C@@H](N)CN3C(=O)CNC(=O)[C@H](Cc3ccc(C(=O)O)cc3)NC(=O)[C@H](Cc3c[nH]c4ccccc34)NC2=O)cc1 [Example 103] (cyclo([AEF](Ac)W[Phe(4-COOH)]G[Pro(4R-NH2)][1Nal(3S-Me)]D[dNMeA]G[Bip(4'-COOH)][4Pal]S[dA][X13])) | 0.066

Further lines, results first:

IC50 [nM] | SMILES
0.195 | CC(=O)NCCOc1ccc(C[C@@H]2NC(=O)[C@H](CCc3ccc(O)cc3)NC(=O)[C@@H](C)NC(=O)[C@H](CC(C)C)NC(=O)[C@H](CCCCN)NC(=O)[C@H](Cc3ccc(-c4ccc(C(=O)O)cc4)cc3)NC(=O)CNC(=O)[C@@H](C)N(C)C(=O)[C@H](CC(=O)O)NC(=O)[C@H]([C@@H](C)c3cccc4ccccc34)NC(=O)[C@@H]3C[C@@H](N)CN3C(=O)CNC(=O)[C@H](Cc3ccc(C(=O)O)cc3)NC(=O)[C@H](Cc3c[nH]c4ccccc34)NC2=O)cc1 [Example 110] (cyclo([AEF](Ac)W[Phe(4-COOH)]G[Pro(4R-NH2)][1Nal(3S-Me)]D[dNMeA]G[Bip(4'-COOH)]KL[dA][hTyr]))
0.0617 | CC(=O)NCCOc1ccc(C[C@@H]2NC(=O)[C@H](CCc3ccc(O)cc3)NC(=O)[C@@H](C)NC(=O)[C@H](CO)NC(=O)[C@H](CCCCN)NC(=O)[C@H](Cc3ccc(-c4ccc(C(=O)O)cc4)cc3)NC(=O)CNC(=O)[C@@H](C)N(C)C(=O)[C@H](CC(=O)O)NC(=O)[C@H]([C@@H](C)c3cccc4ccccc34)NC(=O)[C@@H]3C[C@@H](N)CN3C(=O)CNC(=O)[C@H](Cc3ccc(C(=O)O)cc3)NC(=O)[C@H](Cc3c[nH]c4ccccc34)NC2=O)cc1 [Example 112] (cyclo([AEF](Ac)W[Phe(4-COOH)]G[Pro(4R-NH2)][1Nal(3S-Me)]D[dNMeA]G[Bip(4'-COOH)]KS[dA][hTyr]))

Same assay, conditions: inhibition of IL-1β induced IL-6 secretion in MRC5 cells; read-out: MRC5 IC50

IC50 [nM] | SMILES
0.01 | CC(=O)NC[C@@H]1NC(=O)[C@H](Cc2ccc(-c3ccc(C(=O)O)cc3)cc2)NC(=O)CNC(=O)[C@@H](C)N(C)C(=O)[C@H](CC(=O)O)NC(=O)[C@H]([C@@H](C)c2cccc3ccccc23)NC(=O)[C@@H]2C[C@@H](N)CN2C(=O)CNC(=O)[C@H](Cc2ccc(C(=O)O)cc2)NC(=O)[C@H](Cc2c[nH]c3ccccc23)NC(=O)[C@H](Cc2ccc(N3CCN(C(C)=O)CC3)cc2)NC(=O)[C@H](CCc2cncc(C#N)c2)NC(=O)[C@@H](CN)NC(=O)[C@H](CC(C)C)NC1=O [Example 205] (cyclo([Phe(4-(4-Ac-piperazinyl))]W[Phe(4-COOH)]G[Pro(4R-NH2)][1Nal(3S-Me)]D[dNMeA]G[Bip(4'-COOH)][Dap](Ac)L[dDap][h3Pal(5-CN)]))
0.379 | CC(=O)NCCOc1ccc(C[C@@H]2NC(=O)[C@H](CCc3ccc(O)cc3)NC(=O)[C@@H](C)NC(=O)[C@H](CCN)NC(=O)[C@H](Cc3ccncc3)NC(=O)[C@H](Cc3ccc(-c4ccc(C(=O)O)cc4)cc3)NC(=O)CNC(=O)[C@@H](C)N(C)C(=O)[C@H](CC(=O)O)NC(=O)[C@H]([C@@H](C)c3c[nH]c4cccc(Cl)c34)NC(=O)[C@@H]3C[C@@H](N)CN3C(=O)CNC(=O)[C@H](Cc3ccc(C(=O)O)cc3)NC(=O)[C@H](Cc3c[nH]c4ccccc34)NC2=O)cc1 [Example 134] (cyclo([AEF](Ac)W[Phe(4-COOH)]G[Pro(4R-NH2)][Trp(4-Cl)(βS-Me)]D[dNMeA]G[Bip(4'-COOH)][4Pal][Dab][dA][hTyr]))
0.019 | C[C@@H]1C(=O)NCC(=O)N[C@@H](Cc2ccc(-c3ccc(C(=O)O)cc3)cc2)C(=O)N[C@@H](Cc2ccncc2)C(=O)NCC(=O)N[C@H](CCN)C(=O)N[C@@H](CCC2CCCCC2)C(=O)N[C@@H](Cc2ccc([C@H]3CC[C@@H](C(=O)O)CC3)cc2)C(=O)N[C@@H](Cc2c[nH]c3ccccc23)C(=O)N[C@@H](Cc2ccc(C(=O)O)cc2)C(=O)NCC(=O)N2C[C@H](N)C[C@H]2C(=O)N[C@@H]([C@@H](C)c2cccc3ccccc23)C(=O)N[C@@H](CC(=O)O)C(=O)N1C [Example 191] (cyclo([Phe(4-(cis-4-COOH-cHex))]W[Phe(4-COOH)]G[Pro(4R-NH2)][1Nal(3S-Me)]D[dNMeA]G[Bip(4'-COOH)][4Pal]G[dDab][hCha]))
0.009 | CC(=O)NC[C@@H]1NC(=O)[C@H](Cc2ccc(-c3ccc(C(=O)O)cc3)cc2)NC(=O)CNC(=O)[C@@H](C)N(C)C(=O)[C@H](CC(=O)O)NC(=O)[C@H]([C@@H](C)c2cccc3ccccc23)NC(=O)[C@@H]2C[C@@H](N)CN2C(=O)CNC(=O)[C@H](Cc2ccc(C(=O)O)cc2)NC(=O)[C@H](Cc2c[nH]c3ccccc23)NC(=O)[C@H](Cc2ccc(N3CCN(C(C)=O)CC3)cc2)NC(=O)[C@H](CCc2cncc(C#N)c2)NC(=O)[C@@H](C)NC(=O)[C@H](CCCCN)NC1=O [Example 204] (cyclo([Phe(4-(4-Ac-piperazinyl))]W[Phe(4-COOH)]G[Pro(4R-NH2)][1Nal(3S-Me)]D[dNMeA]G[Bip(4'-COOH)][Dap](Ac)K[dA][h3Pal(5-CN)]))
0.0759 | CC(=O)NCCOc1ccc(C[C@@H]2NC(=O)[C@H](CCc3ccc(O)cc3)NC(=O)[C@@H](C)NC(=O)[C@H](CO)NC(=O)[C@H](Cc3c[nH]c4ccccc34)NC(=O)[C@H](Cc3ccc(-c4ccc(C(=O)O)cc4)cc3)NC(=O)CNC(=O)[C@@H](C)N(C)C(=O)[C@H](CC(=O)O)NC(=O)[C@H]([C@@H](C)c3c[nH]c4cccc(Cl)c34)NC(=O)[C@@H]3C[C@@H](N)CN3C(=O)CNC(=O)[C@H](Cc3ccc(C(=O)O)cc3)NC(=O)[C@H](Cc3c[nH]c4ccccc34)NC2=O)cc1 [Example 151] (cyclo([AEF](Ac)W[Phe(4-COOH)]G[Pro(4R-NH2)][Trp(4-Cl)(βS-Me)]D[dNMeA]G[Bip(4'-COOH)]WS[dA][hTyr]))
0.396 | CCC[C@@H]1NC(=O)[C@H](Cc2ccncc2)NC(=O)[C@H](Cc2ccc(-c3ccc(C(=O)O)cc3)cc2)NC(=O)CNC(=O)[C@@H](C)N(C)C(=O)[C@H](CC(=O)O)NC(=O)[C@H]([C@@H](C)c2c[nH]c3cccc(Cl)c23)NC(=O)[C@@H]2C[C@@H](N)CN2C(=O)CNC(=O)[C@H](Cc2ccc(C(=O)O)cc2)NC(=O)[C@H](Cc2c[nH]c3ccccc23)NC(=O)[C@H](Cc2ccc(OCCNC(C)=O)cc2)NC(=O)[C@H](CC2CCC(F)(F)CC2)NC(=O)[C@@H](C)NC1=O [Example 136] (cyclo([AEF](Ac)W[Phe(4-COOH)]G[Pro(4R-NH2)][Trp(4-Cl)(βS-Me)]D[dNMeA]G[Bip(4'-COOH)][4Pal][Nva][dA][X10]))
